Paper PMC9322451 (Clinical Pharmacology in Drug Development, 2022)
Like-named read-outs stand apart in the source and are kept apart here.

Experiment: Phase 1 part A: PK after single and multiple once-daily oral doses
Format: in vivo, human
Conditions: for Dose-normalized AUClast / Dose-normalized AUCτ / Dose-normalized AUC∞ / Dose-normalized Cmax: geometric least squares mean; for concentration at 30 day / Tmax / half-life / AUC / AUC(0-inf) / AUC(0-t) / Cmax: human, plasma
Experimental: The study was conducted sequentially in 2 parts. […] Eligible participants were admitted to the clinical unit for single‐dose evaluation from days −2 to 2 and from days 29 to 31 for steady‐state PK and safety evaluation. Participants self‐administered daily doses after an overnight fast of at least 10 hours on days 4 to 30, with outpatient visits on days 3, 4, 7, 14, 21, 32, 33, and 61 (Figure S1).
For part A, blood samples for PK assessments were collected following administration on days 1 and 30 at 0 (predose), 0.5, 0.75, 1, 1.5, 2, 3, 4, 8, 12, 24, 48, and 72 hours after dosing. In addition, predose PK samples were collected on days 4, 7, 14, and 21. PK parameters following single and multiple once‐daily dosing were evaluated using noncompartmental analysis, including the AUC over a dosing interval (AUCτ), AUC from time 0 to the last time with quantifiable concentration (AUClast), AUC from time 0 to infinite time (AUC∞), maximum plasma concentration (Cmax), minimum plasma concentration, time to maximum plasma concentration (tmax), terminal elimination half‐life (t1/2), apparent total drug clearance following oral administration (CL/F), and predose concentration.
All statistical analyses were performed using SAS version 9.3 or higher (SAS Institute Inc., Cary, North Carolina). Analysis of PK data was performed using WinNonlin Professional Software version 8.0 or higher (Certara, LP, Princeton, New Jersey). […] Categorical data were summarized by race and treatment group in terms of number of participants with data at relevant time points, frequency counts, and percentages. PK concentrations below the limit of quantification (BLQ) at time 0 on days 1 and 30 were considered 0. Postdose BLQ data were considered missing for PK parameter calculation. For mean concentrations and graphic presentation, all BLQ data were imputed as 0.

[1] = Multiple dosing (Day 30), Japanese n = 23, 3 dose groups pooled
[2] = Multiple dosing (Day 30), White n = 24, 3 dose groups pooled
[3] = Single dose (Day 1), Japanese n = 25, 3 dose groups pooled
[4] = Single dose (Day 1), White n = 24, 3 dose groups pooled
[5] = po, 10 mg, Day 1, 10 mg, Japanese, mean (CV%)
[6] = po, 10 mg, Day 1, 10 mg, White, mean (CV%)
[7] = po, 10 mg, Day 30, 10 mg once daily, Japanese, mean (CV%)

## Cn1c(=O)oc2ccc(-c3ccc(C[C@@H](C#N)NC(=O)[C@@H]4CNCCCO4)cc3)cc21 [Brensocatib]
10 mg, Japanese
  Mean steady‐state CL/F: 10.1 L/h
10 mg, White
  Mean steady‐state CL/F: 8.5 L/h
25 mg, Japanese
  Mean steady‐state CL/F: 6.4 L/h
25 mg, White
  Mean steady‐state CL/F: 7.0 L/h
40 mg, White
  Mean steady‐state CL/F: 6.5 L/h
Day 30, 10 mg once daily, Japanese, mean (CV%)
  Ctrough: 15.64 (48.2) ng/mL
Day 30, 10 mg once daily, White, mean (CV%)
  Ctrough: 31.65 (52.6) ng/mL
Day 30, 25 mg once daily, Japanese, mean (CV%)
  Ctrough: 93.05 (72.3) ng/mL
Day 30, 25 mg once daily, White, mean (CV%)
  Ctrough: 83.24 (48.2) ng/mL
Day 30, 40 mg once daily, Japanese, mean (CV%)
  Ctrough: 81.86 (101.6) ng/mL
Day 30, 40 mg once daily, White, mean (CV%)
  Ctrough: 92.95 (90) ng/mL
[1]
  Dose-normalized AUClast: 172.9 (ng ‧ h/mL)/mg
  Dose-normalized AUCτ: 107.6 (ng ‧ h/mL)/mg
  Dose-normalized AUC∞: 194.9 (ng ‧ h/mL)/mg
  Dose-normalized Cmax: 8.5 (ng/mL)/mg
[2]
  Dose-normalized AUClast: 243.8 (ng ‧ h/mL)/mg
  Dose-normalized AUCτ: 144.8 (ng ‧ h/mL)/mg
  Dose-normalized AUC∞: 285.4 (ng ‧ h/mL)/mg
  Dose-normalized Cmax: 10.6 (ng/mL)/mg
[3]
  Dose-normalized AUClast: 94.0 (ng ‧ h/mL)/mg
  Dose-normalized AUCτ: 62.5 (ng ‧ h/mL)/mg
  Dose-normalized AUC∞: 103.9 (ng ‧ h/mL)/mg
  Dose-normalized Cmax: 6.1 (ng/mL)/mg
[4]
  Dose-normalized AUClast: 118.8 (ng ‧ h/mL)/mg
  Dose-normalized AUCτ: 75.4 (ng ‧ h/mL)/mg
  Dose-normalized AUC∞: 133.9 (ng ‧ h/mL)/mg
  Dose-normalized Cmax: 6.9 (ng/mL)/mg
oral, 10 mg, Day 30, 10 mg once daily, Japanese, mean (CV%), read-out: Cavg
  concentration at 30 day: 43.8 ng/mL
oral, 10 mg, Day 30, 10 mg once daily, Japanese, mean (CV%), read-out: Cmin
  concentration at 30 day: 19.6 ng/mL
oral, 10 mg, Day 30, 10 mg once daily, White, mean (CV%), read-out: Cavg
  concentration at 30 day: 49.4 ng/mL
oral, 10 mg, Day 30, 10 mg once daily, White, mean (CV%), read-out: Cmin
  concentration at 30 day: 26.3 ng/mL
oral, 25 mg, Day 30, 25 mg once daily, Japanese, mean (CV%), read-out: Cavg
  concentration at 30 day: 174 ng/mL
oral, 25 mg, Day 30, 25 mg once daily, Japanese, mean (CV%), read-out: Cmin
  concentration at 30 day: 98.8 ng/mL
oral, 25 mg, Day 30, 25 mg once daily, White, mean (CV%), read-out: Cavg
  concentration at 30 day: 161 ng/mL
oral, 25 mg, Day 30, 25 mg once daily, White, mean (CV%), read-out: Cmin
  concentration at 30 day: 93.9 ng/mL
oral, 40 mg, Day 30, 40 mg once daily, Japanese, mean (CV%), read-out: Cavg
  concentration at 30 day: 167 ng/mL
oral, 40 mg, Day 30, 40 mg once daily, Japanese, mean (CV%), read-out: Cmin
  concentration at 30 day: 77.5 ng/mL
oral, 40 mg, Day 30, 40 mg once daily, White, mean (CV%), read-out: Cavg
  concentration at 30 day: 269 ng/mL
oral, 40 mg, Day 30, 40 mg once daily, White, mean (CV%), read-out: Cmin
  concentration at 30 day: 149 ng/mL
oral, once‐daily administration, steady state, range over groups, read-out: Tmax
  Tmax: 1 to 1.8 h
oral, once‐daily administration, steady state, range over groups, read-out: elimination t1/2
  half-life: 21.7 to 27.6 h
oral, range over groups (abstract), read-out: Elimination half‐life
  half-life: 22 to 28 h
oral, single dose, Japanese participants, range over dose groups, read-out: Elimination t1/2
  half-life: 18.4 to 22.4 h
oral, single dose, White participants, range over dose groups, read-out: Elimination t1/2
  half-life: 21.5 to 24.5 h
oral, single‐dose administration, range over groups, read-out: median tmax
  Tmax: 1 to 1.5 h
oral, steady state, Japanese participants, across the 3 dose groups, read-out: mean t1/2
  half-life: 21.7 to 23.1 h
oral, steady state, White participants, across the 3 dose groups, read-out: mean t1/2
  half-life: 22.9 to 27.6 h
[5]
  AUC: 628 ng·h/mL
  AUC(0-inf): 1030 ng·h/mL
  AUC(0-t): 943 ng·h/mL
  Cmax: 64.5 ng/mL
po, 10 mg, Day 1, 10 mg, Japanese, mean (CV%), read-out: t1/2 (converted)
  half-life: 18.8 h
po, 10 mg, Day 1, 10 mg, Japanese, median (range), read-out: Tmax
  Tmax: 1.02 h
[6]
  AUC: 620 ng·h/mL
  AUC(0-inf): 1140 ng·h/mL
  AUC(0-t): 988 ng·h/mL
  Cmax: 55.9 ng/mL
po, 10 mg, Day 1, 10 mg, White, mean (CV%), read-out: t1/2 (converted)
  half-life: 25.7 h
po, 10 mg, Day 1, 10 mg, White, median (range), read-out: Tmax
  Tmax: 1.01 h
[7]
  AUC: 1050 ng·h/mL
  AUC(0-inf): 1980 ng·h/mL
  AUC(0-t): 1730 ng·h/mL
